Assays:
Test in all cases: relative viability (nuclei count vs DMSO), 5 days (fraction); higher = more cells survive
ABC-1 = test system: ABC-1
Outline: (§1)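 Medians of duplicate plates are given as relative viability. That measure is the nuclei count in treated wells divided by the count in vehicle wells. Counts were taken on 4× images of lung cancer cell lines in 1536-well plates, 5 days after pin-tool dosing the day after seeding with one drug alone or a fixed anchor-drug dose plus five library-drug doses (not always all listed) in √10 steps.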

NCI-H2126 = test system: NCI-H2126
Outline: as §1

Calu-6 = test system: Calu-6
Outline: as §1

NCI-H1703 = test system: NCI-H1703
Outline: as §1

A549 = test system: A549
Outline: as §1

NCI-H1299 = test system: NCI-H1299
Outline: as §1

EKVX = test system: EKVX
Outline: as §1

IA-LM = test system: IA-LM
Outline: as §1

EBC-1 = test system: EBC-1
Outline: as §1

SMILES	relative viability (ABC-1; first compound 0.08 µM)	relative viability (ABC-1; first compound 0.253 µM)	relative viability (ABC-1; first compound 0.8 µM)	relative viability (ABC-1; first compound 2.53 µM)	relative viability (NCI-H2126; first compound 0.08 µM)	relative viability (NCI-H2126; first compound 0.253 µM)	relative viability (NCI-H2126; first compound 0.8 µM)	relative viability (NCI-H2126; first compound 2.53 µM)	relative viability (Calu-6; first compound 0.08 µM)	relative viability (Calu-6; first compound 0.253 µM)	relative viability (Calu-6; first compound 0.8 µM)	relative viability (Calu-6; first compound 2.53 µM)	relative viability (NCI-H1703; first compound 0.08 µM)	relative viability (NCI-H1703; first compound 0.253 µM)	relative viability (NCI-H1703; first compound 0.8 µM)	relative viability (NCI-H1703; first compound 2.53 µM)	relative viability (A549; first compound 0.08 µM)	relative viability (A549; first compound 0.253 µM)	relative viability (A549; first compound 0.8 µM)	relative viability (A549; first compound 2.53 µM)	relative viability (NCI-H1299; first compound 0.08 µM)	relative viability (NCI-H1299; first compound 0.253 µM)	relative viability (NCI-H1299; first compound 0.8 µM)	relative viability (NCI-H1299; first compound 2.53 µM)	relative viability (EKVX; first compound 0.08 µM)	relative viability (EKVX; first compound 0.253 µM)	relative viability (EKVX; first compound 0.8 µM)	relative viability (EKVX; first compound 2.53 µM)	relative viability (IA-LM; first compound 0.08 µM)	relative viability (IA-LM; first compound 0.253 µM)	relative viability (IA-LM; first compound 0.8 µM)	relative viability (IA-LM; first compound 2.53 µM)	relative viability (EBC-1; first compound 0.08 µM)	relative viability (EBC-1; first compound 0.253 µM)	relative viability (EBC-1; first compound 0.8 µM)	relative viability (EBC-1; first compound 2.53 µM)
Oc1nc(-c2ccc(C(F)(F)F)cc2)nc2c1CSCC2 [XAV939] + C[C@@H](Oc1cc(-c2cnn(C3CCNCC3)c2)cnc1N)c1c(Cl)ccc(F)c1Cl [Crizotinib] (partner 1 µM)	1.32	0.905	0.908	0.603	1.12	0.95	0.938	0.828	0.822	0.719	0.7	0.758	0.787	0.621	0.77	0.583	1.07	0.713	0.693	0.633	0.94	0.978	0.956	0.958	1.09	0.95	0.975	0.586	0.792	0.876	0.398	0.444	0.213	0.223	0.165	0.182
Oc1nc(-c2ccc(C(F)(F)F)cc2)nc2c1CSCC2 [XAV939] + C[C@]1(O)C[C@@H](c2nc(-c3ccc4ccc(-c5ccccc5)nc4c3)c3c(N)nccn32)C1 [Linsitinib] (partner 1 µM)	0.915	0.733	0.809	0.315	0.727	0.61	0.672	0.642	0.981	1.04	0.953	0.856	1.31	1.02	0.969	0.584	0.696	0.526	0.486	0.51	1.03	0.878	0.948	0.948	1.07	0.776	0.831	0.623	0.565	0.512	0.505	0.458	1.02	0.832	0.809	0.754
Oc1nc(-c2ccc(C(F)(F)F)cc2)nc2c1CSCC2 [XAV939] + Cc1nc(NC(=O)N2CCC[C@H]2C(N)=O)sc1-c1ccnc(C(C)(C)C(F)(F)F)c1 [Alpelisib] (partner 2 µM)	1.14	0.811	0.965	0.428	0.748	0.661	0.664	0.563	1.08	0.887	0.919	0.948	0.397	0.301	0.307	0.324	0.877	0.371	0.484	0.524	1.08	1.04	1.09	1.11	0.825	0.67	0.731	0.548	0.77	0.693	0.705	0.557	0.874	0.71	0.716	0.726
